Measured values: ChEMBL document CHEMBL4145492, “Discovery of biphenyl-substituted diarylpyrimidines as non-nucleoside reverse transcriptase inhibitors with high potency against wild-type and mutant HIV-1” (Eur J Med Chem, 2018)

Tests used:
[1] = system: Human immunodeficiency virus 2; experiment: Antiviral activity against HIV2 ROD infected in human MT4 cells assessed as reduction of virus-induced cytopathic effect after 4 days by MTT assay; assay type: functional, organism-based; conditions: Human immunodeficiency virus 2, ISOLATE ROD, MT4, 96 h
[2] = Selectivity index, ratio of CC50 for human MT4 cells to EC50 for wild type HIV1 3B; assay type: toxicity; conditions: read-out: Ratio CC50/EC50
[3] = Cytotoxicity against human MT4 cells assessed as reduction in cell viability after 4 days by MTT assay; assay type: cell-based
[4] = system: Human immunodeficiency virus 1; experiment: Antiviral activity against wild type HIV1 3B infected in human MT4 cells assessed as reduction of virus-induced cytopathic effect after 4 days by MTT assay; assay type: functional, organism-based; conditions: Human immunodeficiency virus 1, 3B, MT4, 96 h
[5] = molecular target: Human immunodeficiency virus type 1 reverse transcriptase (Human immunodeficiency virus 1, UniProt Q72547); experiment: Inhibition of recombinant wild type HIV1 reverse transcriptase p66/p51 using poly (rA)/anoligo (dT)16 as template/primer assessed as inhibition of biotin-dUTP incorporation after 40 mins by Pico-Green staining based fluorescence assay
[6] = system: Human immunodeficiency virus 1; experiment: Antiviral activity against HIV1 harboring reverse transcriptase Y181C mutant infected in human MT4 cells assessed as reduction of virus-induced cytopathic effect after 4 days by MTT assay; assay type: functional, organism-based; conditions: Human immunodeficiency virus 1, MT4, 96 h
[7] = system: Human immunodeficiency virus 1; experiment: Antiviral activity against HIV1 harboring reverse transcriptase F227L/V106A double mutant infected in human MT4 cells assessed as reduction of virus-induced cytopathic effect after 4 days by MTT assay; assay type: functional, organism-based; conditions: Human immunodeficiency virus 1, MT4, 96 h
[8] = system: Human immunodeficiency virus 1; experiment: Antiviral activity against HIV1 harboring reverse transcriptase E138K mutant infected in human MT4 cells assessed as reduction of virus-induced cytopathic effect after 4 days by MTT assay; assay type: functional, organism-based; conditions: Human immunodeficiency virus 1, MT4, 96 h
[9] = system: Human immunodeficiency virus 1; experiment: Antiviral activity against HIV1 harboring reverse transcriptase Y188L mutant infected in human MT4 cells assessed as reduction of virus-induced cytopathic effect after 4 days by MTT assay; assay type: functional, organism-based; conditions: Human immunodeficiency virus 1, MT4, 96 h
[10] = system: Human immunodeficiency virus 1; experiment: Antiviral activity against HIV1 RES056 harboring reverse transcriptase K103 N/Y181C double mutant infected in human MT4 cells assessed as reduction of virus-induced cytopathic effect after 4 days by MTT assay; assay type: functional, organism-based; conditions: Human immunodeficiency virus 1, RES056, MT4, 96 h
[11] = system: Human immunodeficiency virus 1; experiment: Antiviral activity against HIV1 harboring reverse transcriptase K103N mutant infected in human MT4 cells assessed as reduction of virus-induced cytopathic effect after 4 days by MTT assay; assay type: functional, organism-based; conditions: Human immunodeficiency virus 1, MT4, 96 h
[12] = system: Human immunodeficiency virus 1; experiment: Antiviral activity against HIV1 harboring reverse transcriptase L100I mutant infected in human MT4 cells assessed as reduction of virus-induced cytopathic effect after 4 days by MTT assay; assay type: functional, organism-based; conditions: Human immunodeficiency virus 1, MT4, 96 h
[13] = system: Human immunodeficiency virus 1; experiment: Potency index, ratio of nevirapine EC50 to test compound EC50 for wild type HIV1 3B infected in human MT4 cells; assay type: functional

IC50 [5]	SMILES	EC50 [1]	selectivity ratio [2]	CC50 at 96 h [3]	EC50 [4]	EC50 [6]	EC50 [7]	EC50 [8]	EC50 [9]	EC50 [10]	EC50 [11]	EC50 [12]	Ratio EC50 [13]
20 nM	Cc1cc(-c2cccc(Cl)c2)cc(C)c1Nc1ccnc(Nc2ccc(C#N)cc2)n1	> 2160 nM	409	2160 nM	5.3 nM	–	–	–	–	–	–	–	–
18 nM	Cc1ccccc1-c1cc(C)c(Nc2ccnc(Nc3ccc(C#N)cc3)n2)c(C)c1	> 3820 nM	1580	3820 nM	2.4 nM	–	–	–	–	–	–	–	–
58 nM	Cc1cc(-c2cccc(C(F)(F)F)c2)cc(C)c1Nc1ccnc(Nc2ccc(C#N)cc2)n1	> 4030 nM	477	4030 nM	8.4 nM	–	–	–	–	–	–	–	–
21 nM	COc1ccccc1-c1cc(C)c(Nc2ccnc(Nc3ccc(C#N)cc3)n2)c(C)c1	> 940 nM	316	940 nM	3 nM	–	–	–	–	–	–	–	–
27 nM	COc1cccc(-c2cc(C)c(Nc3ccnc(Nc4ccc(C#N)cc4)n3)c(C)c2)c1	> 2990 nM	1050	2990 nM	2.9 nM	–	–	–	–	–	–	–	–
37 nM	Cc1cc(-c2c(C)cccc2C)cc(C)c1Nc1ccnc(Nc2ccc(C#N)cc2)n1	> 2590 nM	364	2590 nM	7.1 nM	–	–	–	–	–	–	–	–
16 nM	Cc1cc(-c2ccccc2)cc(C)c1Nc1ccnc(Nc2ccc(C#N)cc2)n1	> 4170 nM	1520	4170 nM	2.8 nM	–	–	–	–	–	–	–	10
12 nM	Cc1cc(-c2cccc(F)c2)cc(C)c1Nc1ccnc(Nc2ccc(C#N)cc2)n1	> 4120 nM	2380	4120 nM	1.7 nM	–	–	–	–	–	–	–	–
20 nM	Cc1cc(-c2ccccc2Cl)cc(C)c1Nc1ccnc(Nc2ccc(C#N)cc2)n1	> 3990 nM	1150	3990 nM	2.6 nM	–	–	–	–	–	–	–	–
30 nM	Cc1cccc(-c2cc(C)c(Nc3ccnc(Nc4ccc(C#N)cc4)n3)c(C)c2)c1	> 3670 nM	622	3670 nM	5.9 nM	–	–	–	–	–	–	–	–
46 nM	Cc1cc(-c2ccccc2C(F)(F)F)cc(C)c1Nc1ccnc(Nc2ccc(C#N)cc2)n1	> 4210 nM	606	4210 nM	6.9 nM	–	–	–	–	–	–	–	–
19 nM	Cc1ccc(-c2cc(C)c(Nc3ccnc(Nc4ccc(C#N)cc4)n3)c(C)c2)cc1	> 5570 nM	1540	5570 nM	3.6 nM	–	–	–	–	–	–	–	–
26 nM	Cc1cc(-c2ccc(Cl)cc2)cc(C)c1Nc1ccnc(Nc2ccc(C#N)cc2)n1	> 4190 nM	1130	4190 nM	3.7 nM	–	–	–	–	–	–	–	–
27 nM	COc1ccc(-c2cc(C)c(Nc3ccnc(Nc4ccc(C#N)cc4)n3)c(C)c2)cc1	> 2890 nM	1200	2890 nM	2.4 nM	–	–	–	–	–	–	–	–
116 nM	Cc1cc(C)cc(-c2cc(C)c(Nc3ccnc(Nc4ccc(C#N)cc4)n3)c(C)c2)c1	> 4140 nM	177	4140 nM	23 nM	–	–	–	–	–	–	–	–
67 nM	Cc1cc(-c2ccc(C(F)(F)F)cc2)cc(C)c1Nc1ccnc(Nc2ccc(C#N)cc2)n1	> 4160 nM	418	4160 nM	10 nM	–	–	–	–	–	–	–	–
52 nM	Cc1cc(-c2cc(F)cc(F)c2)cc(C)c1Nc1ccnc(Nc2ccc(C#N)cc2)n1	> 3910 nM	120	3910 nM	33 nM	–	–	–	–	–	–	–	–
46 nM	Cc1cc(-c2cc(Cl)cc(Cl)c2)cc(C)c1Nc1ccnc(Nc2ccc(C#N)cc2)n1	> 4290 nM	125	4290 nM	34 nM	–	–	–	–	–	–	–	–
–	O=C1Nc2ccc(Cl)cc2[C@@](C#CC2CC2)(C(F)(F)F)O1 [EFAVIRENZ]	–	–	> 2000 nM	0.43 nM	1.5 nM	50 nM	1.6 nM	59 nM	40 nM	19 nM	1 nM	–
–	Cc1cc(C#N)cc(C)c1Oc1nc(Nc2ccc(C#N)cc2)nc(N)c1Br [ETRAVIRINE]	–	> 1320	> 2000 nM	1.5 nM	8.1 nM	7 nM	7.3 nM	7.9 nM	10 nM	1.5 nM	2.7 nM	–
–	Cc1ccnc2c1NC(=O)c1cccnc1N2C1CC1 [NEVIRAPINE]	–	–	> 4000 nM	24 nM	> 4000 nM	> 4000 nM	58 nM	> 4000 nM	> 4000 nM	1850 nM	400 nM	–
–	Cc1cn([C@H]2C[C@H](N=[N+]=[N-])[C@@H](CO)O2)c(=O)[nH]c1=O [ZIDOVUDINE]	–	> 971	> 2000 nM	2.1 nM	1.7 nM	1 nM	2.2 nM	1.6 nM	1.5 nM	1.9 nM	1.3 nM	–

SMILES	IC50 [5]	EC50 [1]	selectivity ratio [2]	CC50 at 96 h [3]	EC50 [4]	EC50 [6]	EC50 [7]	EC50 [8]	EC50 [9]	EC50 [10]	EC50 [11]	EC50 [12]	Ratio EC50 [13]
Cc1cc(-c2ccccc2F)cc(C)c1Nc1ccnc(Nc2ccc(C#N)cc2)n1	9 nM	> 2120 nM	1540	2120 nM	1.4 nM	8 nM	≥ 390 nM	7.8 nM	130 nM	230 nM	3.2 nM	12 nM	–
Cc1cc(-c2cccc(C#N)c2)cc(C)c1Nc1ccnc(Nc2ccc(C#N)cc2)n1	11 nM	> 920 nM	601	920 nM	1.5 nM	11 nM	> 920 nM	8.1 nM	> 920 nM	270 nM	2.3 nM	17 nM	–
Cc1cc(-c2ccc(C#N)cc2)cc(C)c1Nc1ccnc(Nc2ccc(C#N)cc2)n1	14 nM	> 2080 nM	2060	–	1 nM	1.5 nM	≥ 110 nM	2 nM	11 nM	10 nM	0.84 nM	1.3 nM	–
Cc1cc(-c2ccc(F)cc2)cc(C)c1Nc1ccnc(Nc2ccc(C#N)cc2)n1	17 nM	> 3990 nM	2950	4170 nM	1.4 nM	8.3 nM	320 nM	8.1 nM	160 nM	190 nM	2.3 nM	10 nM	–
